# Assay results as given in patent US11059780B2, “Substituted pyrrolidine compound and use thereof” (Takeda Pharmaceutical Company Limited, priority 2017, dated 2021).
# Target: T1, human orexin type 2 receptor (hOX2R) (Homo sapiens, UniProt O43614)
# T1 construct: expressed in transfected cells
# T1 sequence (O43614 1-444): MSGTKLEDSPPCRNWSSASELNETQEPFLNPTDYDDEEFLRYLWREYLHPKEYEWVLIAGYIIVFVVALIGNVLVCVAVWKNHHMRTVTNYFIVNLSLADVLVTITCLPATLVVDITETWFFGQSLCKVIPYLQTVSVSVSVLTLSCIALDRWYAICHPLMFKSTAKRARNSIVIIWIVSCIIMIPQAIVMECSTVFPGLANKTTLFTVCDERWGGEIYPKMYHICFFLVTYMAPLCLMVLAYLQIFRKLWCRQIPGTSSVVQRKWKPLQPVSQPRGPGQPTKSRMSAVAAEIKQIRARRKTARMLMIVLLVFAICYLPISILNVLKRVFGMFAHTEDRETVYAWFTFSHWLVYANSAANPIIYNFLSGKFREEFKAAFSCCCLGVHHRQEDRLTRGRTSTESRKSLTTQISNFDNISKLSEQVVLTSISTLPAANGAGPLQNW
# Assay: Measurement of orexin type 2 receptor agonist activity (Fluo-4 calcium fluorescence, CHO cells forcibly expressing human OX2 receptor)
# Assay type: cell-based
# Settings: test compound 3 μM, DMSO = 0%, orexin A (human) 10 nM = 100%
# Summary of the method: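 CHO-dhfr cells stably expressing human OX2 receptor, loaded with Fluo-4 AM in HBSS/HEPES/BSA with probenecid, then given test compound at 3 μM. Calcium fluorescence recorded for about 2 min 40 s by FDSS; activity normalized to DMSO (0%) and 10 nM human orexin A (100%).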
row,"OX2R agonist activity (3 μM, %)",SMILES
1,43%,"CCc1cccc(C)c1C(=O)N1C[C@@H](OC)[C@H](Oc2cccc(C(F)(F)S(=O)(=O)N(C)C3CCOCC3)c2)C1 (relative stereo) [Example 150, trans-1-(3-((1-(2-ethyl-6-methylbenzoyl)-4-methoxypyrrolidin-3-yl)oxy)phenyl)-1,1-difluoro-N-methyl-N-(tetrahydro-2H-pyran-4-yl)methanesulfonamide]"
2,105%,"CO[C@@H]1CN(C(=O)c2ccccc2C2CC2)C[C@H]1Oc1cccc(CS(=O)(=O)N(C)C2CCOCC2)c1 (relative stereo) [Example 153, trans-1-(3-((1-(2-cyclopropylbenzoyl)-4-methoxypyrrolidin-3-yl)oxy)phenyl)-N-methyl-N-(tetrahydro-2H-pyran-4-yl)methanesulfonamide]"
3,99%,"CCc1cccc(C)c1C(=O)N1C[C@@H](OC)[C@H](Oc2cccc(C(F)S(=O)(=O)N(C)C3CCOCC3)c2)C1 (relative stereo) [Example 154, trans-1-(3-((1-(2-ethyl-6-methylbenzoyl)-4-methoxypyrrolidin-3-yl)oxy)phenyl)-1-fluoro-N-methyl-N-(tetrahydro-2H-pyran-4-yl)methanesulfonamide]"
4,108%,"CCc1cccc(C)c1C(=O)N1C[C@@H](OC)[C@H](Oc2cccc(CS(=O)(=O)N(C)C3CCOCC3)c2)C1 (relative stereo) [Example 155, trans-1-(3-((-1-(2-ethyl-6-methylbenzoyl)-4-methoxypyrrolidin-3-yl)oxy)phenyl)-N-methyl-N-(tetrahydro-2H-pyran-4-yl)methanesulfonamide]"
5,92%,"CO[C@@H]1CN(C(=O)c2cc(C)ccc2C)C[C@H]1Oc1cccc(CS(=O)(=O)N(C)C2CCOC(C)(C)C2)c1 (relative stereo) [Example 156, trans-1-(3-((1-(2,5-dimethylbenzoyl)-4-methoxypyrrolidin-3-yl)oxy)phenyl)-N-(2,2-dimethyltetrahydro-2H-pyran-4-yl)-N-methylmethanesulfonamide]"
6,111%,"CO[C@@H]1CN(C(=O)c2c(C)cccc2C2CC2)C[C@H]1Oc1cccc(CS(=O)(=O)N(C)C2CCOCC2)c1 (relative stereo) [Example 160, trans-1-(3-((1-(2-cyclopropyl-6-methylbenzoyl)-4-methoxypyrrolidin-3-yl)oxy)phenyl)-N-methyl-N-(tetrahydro-2H-pyran-4-yl)methanesulfonamide]"
7,102%,"COc1nccc(C)c1C(=O)N1C[C@@H](OC)[C@H](Oc2cccc(CS(=O)(=O)N(C)C3CCOCC3)c2)C1 (relative stereo) [Example 161, trans-1-(3-((4-methoxy-1-((2-methoxy-4-methylpyridin-3-yl)carbonyl)pyrrolidin-3-yl)oxy)phenyl)-N-methyl-N-(tetrahydro-2H-pyran-4-yl)methanesulfonamide]"
8,96%,"COc1ccc(C)c(C)c1C(=O)N1C[C@@H](OC)[C@H](Oc2cccc(CS(=O)(=O)N(C)C3CCOCC3)c2)C1 (relative stereo) [Example 162, trans-1-(3-((4-methoxy-1-(6-methoxy-2,3-dimethylbenzoyl)pyrrolidin-3-yl)oxy)phenyl)-N-methyl-N-(tetrahydro-2H-pyran-4-yl)methanesulfonamide]"
9,97%,"CO[C@@H]1CN(C(=O)c2c(C)cccc2C2CC2)C[C@H]1Oc1cccc(OS(=O)(=O)N(C)C2CCOCC2)c1 (relative stereo) [Example 163, trans-3-((1-(2-cyclopropyl-6-methylbenzoyl)-4-methoxypyrrolidin-3-yl)oxy)phenyl methyl(tetrahydro-2H-pyran-4-yl)sulfamate]"
10,86%,"CCc1ccc(C)c(C(=O)N2C[C@@H](OC)[C@H](Oc3cccc(CS(=O)(=O)N(C)C4CCOCC4)c3)C2)c1OC (relative stereo) [Example 164, trans-1-(3-((1-(3-ethyl-2-methoxy-6-methylbenzoyl)-4-methoxypyrrolidin-3-yl)oxy)phenyl)-N-methyl-N-(tetrahydro-2H-pyran-4-yl)methanesulfonamide]"
11,108%,"CO[C@@H]1CN(C(=O)c2c(C)cccc2C2CC2)C[C@H]1Oc1cccc(NS(=O)(=O)N(C)C2CCOCC2)c1 (relative stereo) [Example 165, trans-N′-(3-((1-(2-cyclopropyl-6-methylbenzoyl)-4-methoxypyrrolidin-3-yl)oxy)phenyl)-N-methyl-N-(tetrahydro-2H-pyran-4-yl)sulfuric diamide]"
12,41%,"CO[C@@H]1CN(C(=O)c2c(C)cccc2C2CC2)C[C@H]1Oc1cccc(OS(=O)(=O)N2CCOCC2)c1 (relative stereo) [Example 166, trans-3-((1-(2-cyclopropyl-6-methylbenzoyl)-4-methoxypyrrolidin-3-yl)oxy)phenyl morpholine-4-sulfonate]"
13,29%,"Cc1ccc(C)c(C(=O)N2CC[C@H](Oc3cccc(CS(=O)(=O)N4CCCC4c4ccccn4)c3)C2)c1 (stereo partly drawn) [Example 25, (2,5-dimethylphenyl)((3S)-3-(3-(((2-(pyridin-2-yl)pyrrolidin-1-yl)sulfonyl)methyl)phenoxy)pyrrolidin-1-yl)methanone]"
14,68%,"CO[C@@H]1CN(C(=O)c2cc(C)ccc2C)C[C@H]1Oc1cccc(NS(=O)(=O)N2CCC23CCOC3)c1 (stereo partly drawn) [Example 30, N-(3-(((3R,4R)-1-(2,5-dimethylbenzoyl)-4-methoxypyrrolidin-3-yl)oxy)phenyl)-6-oxa-1-azaspiro[3.4]octane-1-sulfonamide]"
15,75%,"COC1CN(C(=O)c2cc(C)ccc2C)CC1Oc1cccc(CS(=O)(=O)N2CCCC2c2ccccc2C)c1 (stereo not drawn) [Example 41, trans-(2,5-dimethylphenyl)(3-methoxy-4-(3-(((2-(2-methylphneyl)pyrrolidin-1-yl)sulfonyl)methyl)phenoxy)pyrrolidin-1-yl)methanone]"
16,55%,"CO[C@@H]1CN(C(=O)c2cc(C)ccc2C)C[C@H]1Oc1cccc(CS(=O)(=O)N2CCC[C@H]2c2ccccn2)c1 [Example 57, (2,5-dimethylphenyl)((3R,4R)-3-methoxy-4-(3-((((2S)-2-(pyridin-2-yl)pyrrolidin-1-yl)sulfonyl)methyl)phenoxy)pyrrolidin-1-yl)methanone]"
17,84%,"CO[C@@H]1CN(C(=O)c2cc(C)ccc2C)C[C@H]1Oc1cccc(NS(=O)(=O)N2CC3CC3C2)c1 (stereo partly drawn) [Example 109, N-(3-(((3R,4R)-1-(2,5-dimethylbenzoyl)-4-methoxypyrrolidin-3-yl)oxy)phenyl)-3-azabicyclo[3.1.0]hexane-3-sulfonamide]"
18,107%,"CO[C@@H]1CN(C(=O)c2c(C)cccc2C)C[C@H]1Oc1cccc(NS(=O)(=O)N2CC3CC3C2)c1 (stereo partly drawn) [Example 120, N-(3-(((3R,4R)-1-(2,6-dimethylbenzoyl)-4-methoxypyrrolidin-3-yl)oxy)phenyl)-3-azabicyclo[3.1.0]hexane-3-sulfonamide]"
19,114%,"COc1cccc(C)c1C(=O)N1C[C@@H](OC)[C@H](Oc2cccc(NS(=O)(=O)N3CC4CC4C3)c2)C1 (stereo partly drawn) [Example 121, N-(3-(((3R,4R)-4-methoxy-1-(2-methoxy-6-methylbenzoyl)pyrrolidin-3-yl)oxy)phenyl)-3-azabicyclo[3.1.0]hexane-3-sulfonamide]"
20,99%,"COc1cccc(C)c1C(=O)N1CC(OC)C(Oc2cccc(CS(=O)(=O)N3CCCC3c3ccc(C)nc3C)c2)C1 (stereo not drawn) [Example 124, trans-3-(3-(((2-(2,6-dimethylpyridin-3-yl)pyrrolidin-1-yl)sulfonyl)methyl)phenoxy)-4-methoxypyrrolidin-1-yl)(2-methoxy-6-methylphenyl)methanone]"
21,96%,"CCc1ccccc1C(=O)N1C[C@@H](OC)[C@H](Oc2cccc(NS(=O)(=O)N3CC4CC4C3)c2)C1 (stereo partly drawn) [Example 129, N-(3-(((3R,4R)-1-(2-ethylbenzoyl)-4-methoxypyrrolidin-3-yl)oxy)phenyl)-3-azabicyclo[3.1.0]hexane-3-sulfonamide]"
22,108%,"CCc1cccc(C)c1C(=O)N1C[C@@H](OC)[C@H](Oc2cccc(NS(=O)(=O)N3CC4CC4C3)c2)C1 (stereo partly drawn) [Example 134, N-(3-(((3R,4R)-1-(2-ethyl-6-methylbenzoyl)-4-methoxypyrrolidin-3-yl)oxy)phenyl)-3-azabicyclo[3.1.0]hexane-3-sulfonamide]"
23,90%,"COc1cccc(C)c1C(=O)N1C[C@@H](OC)[C@H](Oc2cccc(NS(=O)(=O)N(C)C)c2)C1 [Example 135, N′-(3-(((3R,4R)-4-methoxy-1-(2-methoxy-6-methylbenzoyl)pyrrolidin-3-yl)oxy)phenyl)-N,N-dimethylsulfuric diamide]"
24,88%,"CO[C@@H]1CN(C(=O)c2cc(C)ccc2C)C[C@H]1Oc1cccc(C(C)S(=O)(=O)N2CCC[C@H]2c2ccccn2)c1 (stereo partly drawn) [Example 137, (2,5-dimethylphenyl)((3R,4R)-3-methoxy-4-(3-(1-(((2S)-2-(pyridin-2-yl)pyrrolidin-1-yl)sulfonyl)ethyl)phenoxy)pyrrolidin-1-yl)methanone]"
